Test results reported in PubChem BioAssay AID330 (DTP/NCI, 2004).
Several values for one entry are separate records, joined by “and”; a condition that tells them apart may be missing. Identical values can stand only once. Inconclusive results and toxic doses are left out.

Tested on: P388 leukemia ip, CD2F1 mice, survival T/C
Experiment: NCI In Vivo Anticancer Drug Screen. Data for tumor model P388 Leukemia (intraperitoneal) in CD2F1 (CDF1) mice
Conditions: endpoint: median survival time, higher = longer survival
Summary of the method: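 Mice carrying the transplanted tumor received test compound or vehicle. Survival was recorded in each group, and the value is the treated-group measurement divided by that of the vehicle-treated control group.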

[1] = dose: 60.0 mg/kg/injection, schedule: Q01DX005 (ip), vehicle: saline with Tween-80
[2] = dose: 120.0 mg/kg/injection, schedule: Q01DX005 (ip), vehicle: saline with Tween-80
[3] = dose: 100.0 mg/kg/injection, schedule: Q01DX009 (ip), vehicle: saline with Tween-80
[4] = dose: 200.0 mg/kg/injection, schedule: Q01DX009 (ip), vehicle: saline with Tween-80
[5] = dose: 60.0 mg/kg/injection, schedule: Q01DX005 (ip), vehicle: saline
[6] = dose: 120.0 mg/kg/injection, schedule: Q01DX005 (ip), vehicle: saline
[7] = dose: 240.0 mg/kg/injection, schedule: Q01DX005 (ip), vehicle: saline
[8] = dose: 50.0 mg/kg/injection, schedule: Q01DX005 (ip), vehicle: saline with Tween-80
[9] = dose: 100.0 mg/kg/injection, schedule: Q01DX005 (ip), vehicle: saline with Tween-80
[10] = dose: 50.0 mg/kg/injection, schedule: Q01DX005 (ip), vehicle: saline
[11] = dose: 100.0 mg/kg/injection, schedule: Q01DX005 (ip), vehicle: saline

Cc1cc(=O)[nH]c2ccc3ccccc3c12
T/C (dose: 12.5 mg/kg/injection, schedule: Q01DX005 (ip), vehicle: Klucel (hydroxypropylcellulose) (HPC)): 91 % of control | T/C (dose: 25.0 mg/kg/injection, schedule: Q01DX005 (ip), vehicle: Klucel (hydroxypropylcellulose) (HPC)): 91 % of control | T/C (dose: 50.0 mg/kg/injection, schedule: Q01DX005 (ip), vehicle: Klucel (hydroxypropylcellulose) (HPC)): 86 % of control

CN1C(=O)n2c(nc3ccccc32)C(Cl)(Cl)C1=O
T/C [1]: 104 % of control | T/C [2]: 98 % of control

C=CCNC(=S)NC(c1ccc(OC)cc1)C(CC)c1ccc(OC)cc1 (stereo not drawn)
T/C (dose: 100.0 mg/kg/injection, schedule: Q04DX002 (ip), vehicle: saline with Tween-80): 100 % of control | T/C (dose: 200.0 mg/kg/injection, schedule: Q04DX002 (ip), vehicle: saline with Tween-80): 101 % of control | T/C (dose: 400.0 mg/kg/injection, schedule: Q04DX002 (ip), vehicle: saline with Tween-80): 106 % of control

ClC(Cl)(Cl)C1OCCOCCO1
T/C [3]: 109 % of control | T/C [4]: 100 % of control | T/C (dose: 400.0 mg/kg/injection, schedule: Q01DX009 (ip), vehicle: saline with Tween-80): 116 % of control

COC(=O)C1CO[C@@H](C(C)(C)C)N1C=O (stereo partly drawn)
T/C [5]: 104 % of control | T/C [6]: 110 % of control | T/C [7]: 101 % of control

O=C1OC(c2ccccc2)(c2ccccc2)CC1CC(O)(c1ccccc1)c1ccccc1 (stereo not drawn)
T/C [8]: 98 % of control | T/C [9]: 90 % of control

CC(C)(S)CN
T/C (dose: 100.0 mg/kg/injection, schedule: Q01DX001 (ip), vehicle: saline): 104 % of control | T/C (dose: 200.0 mg/kg/injection, schedule: Q01DX001 (ip), vehicle: saline): 108 % of control | T/C (dose: 400.0 mg/kg/injection, schedule: Q01DX001 (ip), vehicle: saline): 103 % of control

Nc1[nH]c(=S)[nH]c(=O)c1N=O
T/C (dose: 6.25 mg/kg/injection, schedule: Q01DX009 (ip), vehicle: saline): 100 % of control and 113 % of control | T/C (dose: 12.5 mg/kg/injection, schedule: Q01DX009 (ip), vehicle: saline): 98 % of control | T/C (dose: 25.0 mg/kg/injection, schedule: Q01DX009 (ip), vehicle: saline): 100 % of control and 117 % of control

Cc1cc(=O)oc2cc(OC(=O)N(C)C)ccc12
T/C (dose: 100.0 mg/kg/injection, schedule: Q04DX003 (ip), vehicle: saline): 115 % of control | T/C (dose: 200.0 mg/kg/injection, schedule: Q04DX003 (ip), vehicle: saline): 112 % of control | T/C (dose: 400.0 mg/kg/injection, schedule: Q04DX003 (ip), vehicle: saline): 97 % of control

CC(=O)NCCSSCc1ccccc1CS(=O)O
T/C (dose: 25.0 mg/kg/injection, schedule: Q01DX005 (ip), vehicle: suspension in saline): 104 % of control | T/C (dose: 50.0 mg/kg/injection, schedule: Q01DX005 (ip), vehicle: suspension in saline): 106 % of control | T/C (dose: 100.0 mg/kg/injection, schedule: Q01DX005 (ip), vehicle: suspension in saline): 113 % of control

CC1=Nc2nnnn2N=C(C)C1
T/C (dose: 25.0 mg/kg/injection, schedule: Q01DX005 (ip), vehicle: saline): 104 % of control | T/C [10]: 92 % of control | T/C [11]: 95 % of control

CCCC(N)C(=O)NC(Cc1c[nH]c2ccccc12)C(=O)O (stereo not drawn)
T/C [8]: 101 % of control | T/C [9]: 102 % of control | T/C (dose: 200.0 mg/kg/injection, schedule: Q01DX005 (ip), vehicle: saline with Tween-80): 103 % of control

CC1=CC[C@H]2C(=O)N(CCN(C)C)C(=O)[C@H]2C1
T/C [10]: 100 % of control | T/C [11]: 100 % of control | T/C (dose: 200.0 mg/kg/injection, schedule: Q01DX005 (ip), vehicle: saline): 98 % of control

O=c1c2cc3ccccc3cc2c(=O)n2n1CC(O)C(Br)C2 (stereo not drawn)
T/C (dose: 25.0 mg/kg/injection, schedule: Q01DX009 (ip), vehicle: DMSO): 101 % of control | T/C (dose: 50.0 mg/kg/injection, schedule: Q01DX009 (ip), vehicle: DMSO): 105 % of control | T/C (dose: 100.0 mg/kg/injection, schedule: Q01DX009 (ip), vehicle: DMSO): 105 % of control

NC1C([O-])OC(CO)C(O)C1O.O=C1OC(C(O)CO)C([O-])=C1[OH2+].[Cu+2] (stereo not drawn)
T/C (dose: 6.25 mg/kg/injection, schedule: Q01DX005 (ip), vehicle: saline): 93 % of control | T/C (dose: 12.5 mg/kg/injection, schedule: Q01DX005 (ip), vehicle: saline): 99 % of control

Cc1ccc(OP(=O)(Oc2ccc(C)cc2)Oc2ccc(C)cc2)cc1.Cc1ccc(OP(=O)(Oc2ccc(C)cc2)Oc2ccc(C)cc2)cc1.Cc1ccc(OP(=O)(Oc2ccc(C)cc2)Oc2ccc(C)cc2)cc1.Cc1ccc(OP(=O)(Oc2ccc(C)cc2)Oc2ccc(C)cc2)cc1.[Mn+2].[O-][Cl+3]([O-])([O-])O
T/C (dose: 10.0 mg/kg/injection, schedule: Q01DX001 (ip), vehicle: Klucel (hydroxypropylcellulose) (HPC)): 101 % of control | T/C (dose: 20.0 mg/kg/injection, schedule: Q01DX001 (ip), vehicle: Klucel (hydroxypropylcellulose) (HPC)): 94 % of control | T/C (dose: 40.0 mg/kg/injection, schedule: Q01DX001 (ip), vehicle: Klucel (hydroxypropylcellulose) (HPC)): 99 % of control

O=[N+]([O-])c1ccc2nc3c4ccccc4c4ccccc4c3nc2c1
T/C (dose: 12.5 mg/kg/injection, schedule: Q01DX009 (ip), vehicle: saline with Tween-80): 105 % of control | T/C (dose: 25.0 mg/kg/injection, schedule: Q01DX009 (ip), vehicle: saline with Tween-80): 116 % of control | T/C (dose: 50.0 mg/kg/injection, schedule: Q01DX009 (ip), vehicle: saline with Tween-80): 109 % of control and 117 % of control | T/C [3]: 105 % of control | T/C [4]: 104 % of control

CCN(CC)c1ccc2nc3ccc(N=Nc4c(O)ccc5ccccc45)cc3[n+](-c3ccccc3)c2c1
T/C (dose: 0.75 mg/kg/injection, schedule: Q01DX005 (ip), vehicle: saline with Tween-80): 115 % of control | T/C (dose: 1.5 mg/kg/injection, schedule: Q01DX005 (ip), vehicle: saline with Tween-80): 120 % of control | T/C (dose: 3.0 mg/kg/injection, schedule: Q01DX005 (ip), vehicle: saline with Tween-80): 120 % of control | T/C (dose: 6.0 mg/kg/injection, schedule: Q01DX005 (ip), vehicle: saline with Tween-80): 90 % of control

COc1ccc(C(C)=O)cc1CS/C(=N/S(=O)(=O)c1ccccc1)Nc1cccc(Cl)c1Cl
T/C (dose: 50.0 mg/kg/injection, schedule: Q01DX009 (ip), vehicle: Klucel (hydroxypropylcellulose) (HPC)): 101 % of control | T/C (dose: 100.0 mg/kg/injection, schedule: Q01DX009 (ip), vehicle: Klucel (hydroxypropylcellulose) (HPC)): 101 % of control | T/C (dose: 200.0 mg/kg/injection, schedule: Q01DX009 (ip), vehicle: Klucel (hydroxypropylcellulose) (HPC)): 98 % of control

CC1Cn2c(nnc2-c2ccccc2O)S1 (stereo not drawn)
T/C [1]: 96 % of control | T/C [2]: 100 % of control | T/C (dose: 240.0 mg/kg/injection, schedule: Q01DX005 (ip), vehicle: saline with Tween-80): 101 % of control

CCCCCCCCCCCCCCCC(=O)Nc1cccc2c[n+](CC(=O)c3ccc(NC(=O)CCC(=O)OC)cc3)ccc12
T/C (dose: 100.0 mg/kg/injection, schedule: Q01DX001 (ip), vehicle: saline with Tween-80): 90 % of control | T/C (dose: 200.0 mg/kg/injection, schedule: Q01DX001 (ip), vehicle: saline with Tween-80): 86 % of control | T/C (dose: 400.0 mg/kg/injection, schedule: Q01DX001 (ip), vehicle: saline with Tween-80): 109 % of control

O=c1c(N=Nc2nc3ccc([N+](=O)[O-])cc3s2)c(O)n(-c2ccccc2)c(=S)n1-c1ccccc1
T/C [5]: 96 % of control | T/C [6]: 96 % of control | T/C [7]: 92 % of control

COc1cccc2c1C(=O)c1c(O)c3c(c(O)c1C2=O)C[C@@](O)(C(C)O)C[C@@H]3OC1CC(N(C)C)C(O)C(C)O1 (stereo partly drawn)
T/C (dose: 0.78 mg/kg/injection, schedule: Q01DX009 (ip), vehicle: water): 152 % of control | T/C (dose: 1.56 mg/kg/injection, schedule: Q01DX009 (ip), vehicle: water): 159 % of control and 161 % of control | T/C (dose: 2.35 mg/kg/injection, schedule: Q04DX003 (ip), vehicle: water): 107 % of control | T/C (dose: 3.13 mg/kg/injection, schedule: Q01DX009 (ip), vehicle: water): 165 % of control and 172 % of control | T/C (dose: 6.25 mg/kg/injection, schedule: Q01DX009 (ip), vehicle: water): 198 % of control and 209 % of control | T/C (dose: 9.4 mg/kg/injection, schedule: Q04DX003 (ip), vehicle: water): 111 % of control | T/C (dose: 75.0 mg/kg/injection, schedule: Q04DX003 (ip), vehicle: water): 108 % of control
